# Source: US12398151B2, “Sumo inhibitor compounds and uses thereof” (SUVALENT THERAPEUTICS, INC., priority 2019, dated 2025)
# Like-named read-outs stand apart in the source and are kept apart here.
# How the values were obtained:
# SUMO E1 = target: T1, SUMO E1 (Homo sapiens, UniProt Q9UBT2); test: SUMO E1 inhibition: UBC9-SUMO1 conjugation by SDS gel electrophoresis; assay type: biochemical; conditions: read-out: SUMO E1 percent inhibition of adduct formation; for inhibition at 25 µM: 25 uM compound; for inhibition at 27 µM: 27 uM compound; for inhibition at 9 µM: 9 uM compound; for inhibition at 10 µM: 10 uM compound; for inhibition at 1 µM: 1 uM compound
# T1 sequence (Q9UBT2 1-640): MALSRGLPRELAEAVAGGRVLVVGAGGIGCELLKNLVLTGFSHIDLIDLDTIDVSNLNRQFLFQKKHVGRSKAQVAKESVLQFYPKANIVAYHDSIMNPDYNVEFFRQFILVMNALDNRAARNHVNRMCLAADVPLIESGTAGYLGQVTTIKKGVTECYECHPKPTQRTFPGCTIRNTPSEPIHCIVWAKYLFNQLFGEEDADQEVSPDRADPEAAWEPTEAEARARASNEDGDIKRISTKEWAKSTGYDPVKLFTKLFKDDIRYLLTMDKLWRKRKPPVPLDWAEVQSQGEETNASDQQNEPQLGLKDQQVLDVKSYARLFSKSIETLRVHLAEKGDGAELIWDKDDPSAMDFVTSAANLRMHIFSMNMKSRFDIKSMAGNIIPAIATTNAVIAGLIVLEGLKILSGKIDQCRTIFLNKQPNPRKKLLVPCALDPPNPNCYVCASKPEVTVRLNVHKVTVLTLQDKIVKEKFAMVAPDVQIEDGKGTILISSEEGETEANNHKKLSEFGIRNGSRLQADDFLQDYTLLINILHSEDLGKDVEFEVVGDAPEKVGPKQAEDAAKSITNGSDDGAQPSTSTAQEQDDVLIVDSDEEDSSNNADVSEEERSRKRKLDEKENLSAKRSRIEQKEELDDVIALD
# T1 sequence (Q9UBE0 1-346 partner): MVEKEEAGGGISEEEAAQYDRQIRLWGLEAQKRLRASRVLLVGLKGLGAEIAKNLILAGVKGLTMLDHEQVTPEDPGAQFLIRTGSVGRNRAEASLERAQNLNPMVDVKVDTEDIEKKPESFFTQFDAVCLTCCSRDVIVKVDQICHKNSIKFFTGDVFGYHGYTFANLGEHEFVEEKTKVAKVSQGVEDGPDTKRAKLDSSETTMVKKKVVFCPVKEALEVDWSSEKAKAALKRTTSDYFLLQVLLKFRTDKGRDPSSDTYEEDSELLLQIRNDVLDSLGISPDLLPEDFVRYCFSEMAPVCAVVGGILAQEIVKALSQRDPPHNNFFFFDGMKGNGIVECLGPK
# Summary of the method: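 SUMO E1 was preincubated with compound for a set time, then UBC9, SUMO1 and ATP were added and incubated at 37 °C. After Laemmli quench, UBC9-SUMO1 adduct was resolved by SDS gel; percent inhibition from band intensity versus no-compound control, reported with compound concentration (μM) and preincubation time (min).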
# Atg7 = target: T2, Atg7 (Homo sapiens, UniProt O95352); test: Atg7 activating enzyme (E1) inhibition; assay type: biochemical; conditions: 25 uM compound, 60 min preincubation; read-out: Atg7 percent inhibition of adduct formation
# T2 sequence (O95352 1-703): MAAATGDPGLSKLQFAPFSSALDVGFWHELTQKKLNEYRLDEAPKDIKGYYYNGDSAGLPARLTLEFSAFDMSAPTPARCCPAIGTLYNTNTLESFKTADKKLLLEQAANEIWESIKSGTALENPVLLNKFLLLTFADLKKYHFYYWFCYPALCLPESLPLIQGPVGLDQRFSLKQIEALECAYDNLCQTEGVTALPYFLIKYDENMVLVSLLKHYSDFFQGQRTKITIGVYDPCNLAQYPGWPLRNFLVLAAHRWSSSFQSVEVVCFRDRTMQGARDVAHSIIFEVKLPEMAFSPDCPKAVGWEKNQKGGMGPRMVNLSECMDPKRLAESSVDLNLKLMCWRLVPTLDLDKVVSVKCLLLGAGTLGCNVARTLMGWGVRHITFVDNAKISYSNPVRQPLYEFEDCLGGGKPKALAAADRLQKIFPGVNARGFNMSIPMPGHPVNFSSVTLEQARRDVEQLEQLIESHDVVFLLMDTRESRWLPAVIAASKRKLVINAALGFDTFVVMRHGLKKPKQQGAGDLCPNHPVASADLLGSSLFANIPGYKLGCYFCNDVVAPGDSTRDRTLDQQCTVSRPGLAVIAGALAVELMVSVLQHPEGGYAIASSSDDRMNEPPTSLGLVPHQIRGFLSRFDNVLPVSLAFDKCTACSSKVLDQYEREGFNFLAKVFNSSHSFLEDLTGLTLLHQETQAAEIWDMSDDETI
# Summary of the method: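 Compounds were assessed for their ability to inhibit the Atg7 activating enzyme (E1) following previously published methods and protocols. The E1 enzyme was preincubated with compound, and activity was expressed as the percent inhibition of adduct formation, reported together with the compound concentration in uM and the E1–compound preincubation time in minutes.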
SMILES,inhibition at 25 µM (Atg7),inhibition at 25 µM (SUMO E1; 60 min preincubation),other results
C=CC(=O)N1Cc2cc(Cl)ccc2[C@@H](c2ccncc2)C1 [Compound 92],< 1%,,"inhibition at 20 µM (SUMO E1; 20 uM compound, 60 min preincubation): 10%"
C=CC(=O)N1C[C@H](c2ccccc2)c2cc(Br)ccc2C1(C)C [Compound 67],< 1%,< 1%,
C=CC(=O)N1CCc2cc(CC3CCOCC3)ccc2C1 [Compound 18],95%,< 1%,
C=CC(=O)N1Cc2cc(OCC)ccc2[C@@H](c2ccccc2)C1 [Compound 36],< 1%,40%,
C=CC(=O)N1CCCc2cc(Br)ccc21 [Compound 20],< 1%,< 1%,
Cc1cc2c(s1)CN(C(=O)CC#N)C[C@@H]2c1ccccc1 [Compound 95],< 1%,,inhibition at 9 µM (SUMO E1; 30 min preincubation): < 1%
C=CC(=O)N1CCc2cccc(Br)c2C1 [Compound 21],< 1%,< 1%,
C=CC(=O)N1CCC2CCCCC2C1 (centres unmarked) [Compound 12],< 1%,< 1%,
C=CC(=O)N1Cc2ccccc2C1 [Compound 13],< 1%,< 1%,
C=CC(=O)N1Cc2cc(OCc3ccccc3)ccc2[C@@H](c2ccccc2)C1 [Compound 49],< 1%,< 1%,
C=CC(=O)N1CCc2cc(Br)ccc21 [Compound 4],< 1%,,inhibition at 25 µM (SUMO E1; 30 min preincubation): 10%
C=CC(=O)N1Cc2ccccc2C[C@H]1c1ccccc1 [Compound 26],< 1%,10%,
C=CC(=O)N1Cc2ccc(NC(=O)c3cccnc3)cc2C1 [Compound 16],< 1%,20%,

# Now from value to compound, other results behind:
inhibition at 25 µM (Atg7),inhibition at 25 µM (SUMO E1; 60 min preincubation),SMILES,other results
< 1%,,C=CC(=O)N1Cc2sc(Cl)cc2[C@@H](c2ccccc2C)[C@H]1C [Compound 112],inhibition at 27 µM (SUMO E1; 30 min preincubation): 95%
< 1%,,C=CC(=O)N1Cc2cc(Cl)ccc2[C@@H](c2ccc[nH]c2=O)C1 [Compound 94],inhibition at 9 µM (SUMO E1; 30 min preincubation): < 1%
< 1%,,C=CC(=O)N1Cc2cccc(C)c2[C@@H](c2ccccc2C)C1 [Compound 86],inhibition at 10 µM (SUMO E1; 30 min preincubation): < 1%
< 1%,,C=CC(=O)N1Cc2sc(Br)cc2[C@@H](c2ccccc2C)C1 [Compound 72],inhibition at 10 µM (SUMO E1; 60 min preincubation): 100%
< 1%,,C=CC(=O)N1Cc2sc(Cl)cc2[C@@H](c2ccccc2OCCCN2CCCC2)C1 [Compound 153],"inhibition at 6 µM (SUMO E1; 6 uM compound, 15 min preincubation): < 1%"
< 1%,90%,C=CC(=O)N1Cc2ccc(Br)cc2[C@@H](c2ccccc2C(F)(F)F)C1 [Compound 57],
< 1%,,C=CC(=O)N1Cc2sc(Cl)cc2[C@@H](c2ccccc2)C1 [Compound 73],inhibition at 10 µM (SUMO E1; 60 min preincubation): 100%
< 1%,,C=CC(=O)N1Cc2sc(Cl)cc2[C@@H](c2ccccc2-c2ccccc2)C1 [Compound 133],inhibition at 1 µM (SUMO E1; 30 min preincubation): 95%
< 1%,< 1%,C=CC(=O)N1Cc2cc(OC)ccc2[C@@H](c2ccccc2)C1 [Compound 42],
< 1%,,C=CC(=O)N1CC[C@H](c2ccccc2)c2cc(Cl)sc2C1 [Compound 137],inhibition at 27 µM (SUMO E1; 30 min preincubation): < 1%
< 1%,,O=C(/C=C/C(F)(F)F)N1Cc2sc(Cl)cc2[C@@H](c2ccccc2F)C1 [Compound 120],inhibition at 1 µM (SUMO E1; 30 min preincubation): 100%
100%,,C#CC(=O)N1Cc2sc(Cl)cc2[C@@H](c2ccccc2C)C1 [Compound 93],inhibition at 9 µM (SUMO E1; 30 min preincubation): 95%
